Results on 16 compounds are retold here after ChEMBL document CHEMBL1140531, “New functional assay of P-glycoprotein activity using Hoechst 33342” (Bioorg Med Chem, 2007).

Data set [1] has as its target T1, ATP-dependent translocase ABCB1 (Homo sapiens, UniProt P08183). Kind of data set: Inhibition of P-glycoprotein expressed in MDCK-MDR1 cells by calcein AM assay. In kind it is cell-based.
In data set [2] the target is T1, ATP-dependent translocase ABCB1. Kind of data set: Inhibition of P-glycoprotein expressed in A2780/ADR cells by calcein AM assay. In kind it is cell-based.
For data set [3] the target is unchanged. Kind of data set: Inhibition of P-glycoprotein by Hoechst assay.
Data set [4] in a line: Cytotoxicity against human A2780/ADR cells after 72 hrs by MTT assay. The class given is functional, cell-based. Background: Tetrazolium assays rely on reduction of a dye to a coloured formazan, in cell work by metabolically active cells.
For the next data set, the system named is A2780. Kind of data set: Cytotoxicity against human A2780 cells after 72 hrs by MTT assay. The class given is functional, cell-based. The note with it: A2780, 72 h.

T1 sequence (P08183 whole entry): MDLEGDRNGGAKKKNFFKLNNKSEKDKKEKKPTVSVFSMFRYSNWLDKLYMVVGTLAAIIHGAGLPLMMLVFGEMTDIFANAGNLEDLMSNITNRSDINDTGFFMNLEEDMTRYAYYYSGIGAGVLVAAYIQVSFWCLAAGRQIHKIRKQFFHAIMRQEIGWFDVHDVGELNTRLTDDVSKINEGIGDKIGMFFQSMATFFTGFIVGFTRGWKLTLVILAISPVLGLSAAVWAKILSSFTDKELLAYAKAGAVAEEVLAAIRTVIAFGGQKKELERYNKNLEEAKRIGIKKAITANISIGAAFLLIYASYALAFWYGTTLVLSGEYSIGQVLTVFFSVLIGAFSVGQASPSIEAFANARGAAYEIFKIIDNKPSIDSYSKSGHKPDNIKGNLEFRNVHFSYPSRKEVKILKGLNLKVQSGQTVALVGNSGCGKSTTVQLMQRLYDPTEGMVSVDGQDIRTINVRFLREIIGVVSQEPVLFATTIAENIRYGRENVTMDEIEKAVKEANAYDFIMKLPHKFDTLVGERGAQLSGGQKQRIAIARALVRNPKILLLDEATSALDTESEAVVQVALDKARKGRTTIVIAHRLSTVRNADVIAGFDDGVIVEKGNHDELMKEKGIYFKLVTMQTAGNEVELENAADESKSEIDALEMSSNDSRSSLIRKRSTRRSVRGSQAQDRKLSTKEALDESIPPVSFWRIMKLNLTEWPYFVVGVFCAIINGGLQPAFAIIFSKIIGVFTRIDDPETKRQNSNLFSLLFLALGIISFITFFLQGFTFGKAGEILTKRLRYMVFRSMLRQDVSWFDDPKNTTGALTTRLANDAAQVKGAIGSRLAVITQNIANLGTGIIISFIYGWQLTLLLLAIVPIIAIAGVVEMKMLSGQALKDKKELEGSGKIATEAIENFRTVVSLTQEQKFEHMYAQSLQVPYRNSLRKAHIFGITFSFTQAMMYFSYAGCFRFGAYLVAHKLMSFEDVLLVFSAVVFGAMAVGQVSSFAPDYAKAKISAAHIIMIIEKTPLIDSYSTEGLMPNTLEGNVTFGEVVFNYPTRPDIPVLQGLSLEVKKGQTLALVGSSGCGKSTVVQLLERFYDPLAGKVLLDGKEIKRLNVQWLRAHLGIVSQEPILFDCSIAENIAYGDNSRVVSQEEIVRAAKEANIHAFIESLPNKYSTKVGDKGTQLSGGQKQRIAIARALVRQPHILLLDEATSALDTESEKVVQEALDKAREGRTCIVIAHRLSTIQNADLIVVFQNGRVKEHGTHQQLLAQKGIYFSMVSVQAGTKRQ

By Hill coefficient is commonly meant the slope factor of the fitted curve. The term IC50 denotes the point on the concentration scale where inhibition reaches its midpoint. Regarding `COc1ccc(C(=O)Nc2ccccc2C(=O)Nc2ccc(CCN3CCc4cc(OC)c(OC)cc4C3)cc2)cc1OC`, the Hill coefficient in data set [1] is listed as 2.89. For the same compound, the 50% inhibitory concentration (IC50) in data set [2] was 339 nM; in data set [3], 331 nM.
In the case of `O=C(Nc1ccc(CCN2CCc3ccccc3C2)cc1)Nc1ccccc1NC(=O)c1cnc2ccccc2c1`, the Hill coefficient in data set [1] was 2.6. Moreover, in data set [2], the concentration for half-maximal inhibition (IC50) was 813 nM.
Consider `CCOc1ccc(-c2nc3cc(-c4nc5cc(N6CCN(C)CC6)ccc5[nH]4)ccc3[nH]2)cc1`, for which the 50% inhibitory concentration (IC50) in data set [4] was 38000 nM; in the data set on A2780, 1910 nM.
As for `COc1cc2c(cc1OC)CN(CCc1ccc(NC(=O)c3ccccc3NC(=O)c3ccccc3)cc1)CC2`, the Hill coefficient in data set [1] is 2.01. For the same compound, the IC50 was 851 nM in data set [2] and 513 nM in data set [3].
Consider `O=C(Nc1ccccc1C(=O)Nc1ccc(CCN2CCc3ccccc3C2)cc1)c1cnc2ccccc2c1`, for which the Hill coefficient in data set [1] was 2.42. The values for the IC50 in data set [2] and in data set [3] were 490 nM and 355 nM, respectively.
Turning to `COc1cc2c(c(OC)c1OC)-c1ccc(OC)c(=O)cc1[C@@H](NC(C)=O)CC2` [COLCHICINE], the concentration for half-maximal inhibition (IC50) in data set [4] is 372 nM; in the data set on A2780, 22.9 nM.
On to `COc1cccc2c1C(=O)c1c(O)c3c(c(O)c1C2=O)C[C@@](O)(C(C)=O)C[C@@H]3O[C@H]1C[C@H](N)[C@H](O)[C@H](C)O1` [DAUNORUBICIN], for which the half-maximal inhibitory concentration (IC50) in data set [4] is 18600 nM; in the data set on A2780 it was 117 nM.
Take `COc1ccc([C@@H]2Sc3ccccc3N(CCN(C)C)C(=O)[C@@H]2OC(C)=O)cc1` [DILTIAZEM]: in data set [1], the Hill coefficient is recorded as 1.15.
Consider `CC(=O)O[C@@]12CO[C@@H]1C[C@H](O)[C@@]1(C)C(=O)[C@H](O)C3=C(C)[C@@H](OC(=O)[C@H](O)[C@@H](NC(=O)OC(C)(C)C)c4ccccc4)C[C@@](O)([C@@H](OC(=O)c4ccccc4)[C@H]21)C3(C)C` [DOCETAXEL], for which the IC50 is 87.1 nM in data set [4] and 4.9 nM in the data set on A2780.
For `COc1cccc2c1C(=O)c1c(O)c3c(c(O)c1C2=O)C[C@@](O)(C(=O)CO)C[C@@H]3O[C@H]1C[C@H](N)[C@H](O)[C@H](C)O1` [DOXORUBICIN] the same measures were 13500 nM and 93.3 nM.
As for `Cc1ccc(NC(=O)c2ccc(CN3CCN(C)CC3)cc2)cc1Nc1nccc(-c2cccnc2)n1` [IMATINIB], the Hill coefficient in data set [1] is 1.18.
As for `COC(=O)C1=C(C)NC(C)=C(C(=O)OCCN(C)Cc2ccccc2)C1c1cccc([N+](=O)[O-])c1` (stereo not drawn) [NICARDIPINE], in data set [1], the Hill coefficient is reported as 2.44.
For `CC(=O)[C@H]1CC[C@H]2[C@@H]3CCC4=CC(=O)CC[C@]4(C)[C@H]3CC[C@]12C` [PROGESTERONE], the Hill coefficient in data set [1] is recorded as 1.31.
With `COC(=O)[C@H]1[C@H]2C[C@@H]3c4[nH]c5cc(OC)ccc5c4CCN3C[C@H]2C[C@@H](OC(=O)c2cc(OC)c(OC)c(OC)c2)[C@@H]1OC` [RESERPINE], the Hill coefficient in data set [1] is listed as 1.88. Further, the results for the IC50 in data set [2] and in data set [3] were 3240 nM and 3020 nM, respectively.
Regarding `COC(=O)c1ccccc1-c1c2ccc(=N)cc-2oc2cc(N)ccc12` [RHODAMINE123], the half-maximal inhibitory concentration (IC50) was 123000 nM in data set [4] and 1910 nM in the data set with A2780.
`CC[C@]1(O)C[C@@H]2CN(CCc3c([nH]c4ccccc34)[C@@](C(=O)OC)(c3cc4c(cc3OC)N(C)[C@H]3[C@@](O)(C(=O)OC)[C@H](OC(C)=O)[C@]5(CC)C=CCN6CC[C@]43[C@@H]65)C2)C1` [VINBLASTINE]: the Hill coefficient in data set [1] is given as 2.06. The half-maximal inhibitory concentration (IC50) in data set [4] is 2820 nM; with A2780, 61.7 nM.
